Legend:
[1] = tested on: EAE mice; experiment: Proliferation, migration and differentiation of neuronal progenitor cells in EAE mice (BrdU, DCX, NeuN); format: in vivo, mouse
Description: (xxxix) BrdU. 5-Bromo-2′-deoxyuridine (BrdU, Sigma), a thymidine analog incorporating into the DNA of dividing cells, was injected intraperitoneally (50 mg/kg), either concurrently with GA treatment (once each day), or immediately after completion of GA injections (twice each day).
(xli) Immunohistochemistry. […] Control slides were incubated with secondary antibody alone.
(xliii) Quantification. […] Quantification was performed in coronal sections, in the SVZ starting at the level of the medial septum and 640 μm backward, and in the hippocampal DG (in both blades for BrdU/DCX or in the upper blade for DCX) through its septotemporal axis. Quantification in the RMS was done on sagital sections starting at 1 mm from the median line of the brain and 640 μm laterally. The Results for each brain structure were averaged from 8 unilateral levels per mouse (80 μm apart, 3-4 mice in each treatment group) and are expressed as change fold from naive controls. Quantification of BrdU/NeuN double positive cells in the cortex was performed in areas of 0.15 mm^2, selected at random (10 sections counted/mouse, 3 mice in each treatment group).
(xliv) Statistical analysis. For BrdU and DCX analysis, the mean±SEM (averaged from 8 unilateral levels per mouse, 3-4 mice in each treatment group) was subjected to one-way analysis of variance (ANOVA), followed by Fishers' least significant difference (LSD) at comparison-wise error rate of 0.05, where appropriate. Since control values for BrdU incorporation were reduced as a function of time, results were expressed as change fold from naive controls injected concurrently with BrdU. The number of BrdU/NeuN double-positive cells in the cortex was averaged from 10 sections per mouse (3 mice in each treatment group) and expressed as cells per mm^3.

[2] = tested on: APP/PS1 Tg mice; experiment: Morris water maze (MWM) in APP/PS1 double-transgenic AD mice; format: in vivo, mouse; conditions: GA (TV-5010) s.c. vaccination, tested five weeks after first injection
[3] = tested on: APP/PS1 Tg mice; experiment: Hippocampal immunohistochemistry in APP/PS1 Tg mice (Aβ plaques, microglia, NeuN, BrdU, DCX); format: in vivo, mouse
Description: (xxii) Glatiramer acetate vaccination. Each mouse was subcutaneously injected five times with a total of 100 μg of glatiramer acetate (GA (TV-5010), MW 13.5-18.5 kDa, average 16 kDa, Teva Pharmaceutical Industries Ltd., Petach Tikva, Israel), emulsified in 200 μl PBS×1, from experimental day 0 until day 24, twice during the first week and once a week thereafter.
(xxiv) Administration of BrdU and tissue preparation. BrdU was dissolved by sonication in PBS and injected i.p. into each mouse (50 mg/kg body weight; 1.25 mg BrdU in 200 μl PBS×1). Starting from experimental day 22 after the first GA vaccination, BrdU was injected i.p. twice daily, every 12 h for 2.5 days, to label proliferating cells. Three weeks after the first BrdU injection the mice were deeply anesthetized and perfused transcardially, first with PBS and then with 4% paraformaldehyde. The whole brain was removed, postfixed overnight, and then equilibrated in phosphate-buffered 30% sucrose. Free-floating 30-μm sections were collected on a freezing microtome (Leica SM2000R) and stored at 4° C. prior to immunohistochemistry.
For immunohistochemistry, tissue sections were treated with a permeabilization/blocking solution containing 10% FCS, 2% bovine serum albumin, 1% glycine, and 0.05% Triton X-100 (Sigma-Aldrich, St. Louis). Tissue sections were stained overnight at 4° C. with specified combinations of the following primary antibodies: rat anti-BrdU (1:200; Oxford Biotechnology, Kidlington, Oxfordshire, UK), goat anti-DCX [doublecortin] (1:400; Santa Cruz Biotechnology), and mouse anti-NeuN [neuronal nuclear protein] (1:200; Chemicon, Temecula, Calif.). Secondary antibodies were FITC-conjugated donkey anti-goat, Cy-3-conjugated donkey anti-mouse, and Cy-3- or Cy-5-conjugated donkey anti-rat (1:200; Jackson ImmunoResearch, West Grove, Pa.). For labeling of microglia we used either CD11b (MAC1; 1:50; BD-Pharmingen) or FITC-conjugated Bandeiraea simplicifolia isolectin B4 (IB4, 1:50; Sigma-Aldrich, Rehovot). To detect expression of cell-surface MHC-II proteins we used anti-MHC-II Abs (rat, clone IBL-5/22; 1:50; Chemicon, Temecula, Calif.). To detect expression of human Aβ we used anti-Aβ (human amino-acid residues 1-17) (mouse, clone 6E10, Chemicon, Temecula, Calif.). Expression of IGF-I was detected by goat anti-IGF-I Abs (1:20; R&D Systems). Expression of TNF-α was detected by goat anti-TNF-α Abs (1:100; R&D Systems). T cells were detected with anti-CD3 polyclonal Abs (rabbit, 1:100; DakoCytomation, Calif.). Propidium iodide (1 μg/ml; Molecular Probes, Invitrogen, Carlsbad, Calif.) was used for nuclear staining.
For in-vivo experiments, the number of Aβ^+ plaques and CD11b^+/IB-4^+ microglia in the hippocampus were counted at 300-μm intervals from 6-8 coronal sections (30 μm) from each mouse. Neurogenesis in the DG was evaluated by counting of premature neurons (DCX^+), proliferating cells (BrdU^+), and newly formed mature neurons (BrdU^+/NeuN^+) in six coronal sections (30 μm) from each mouse. Specificity of BrdU^+/NeuN^+ co-expression was assayed using the confocal microscope (LSM 510) in optical sections at 1-μm intervals/. Cell counts, numbers of Aβ^+ plaques, plaque areas, and intensity of NeuN staining per unit area in the DG were evaluated automatically using Image-Pro Plus 4.5 software (Media Cybernetics).

[4] = tested on: EAE mice
Description: GA treatment was applied by 5-8 consecutive daily subcutaneous injections (2 mg/mouse) in different stages of disease [i.e., (1) starting immediately after EAE induction (prevention treatment), (2) starting after appearance of disease manifestations at day 20 (suppression treatment), or (3) starting during the chronic phase 45 days after induction (delayed suppression).
(xl) Perfusion. Animals were deeply anesthetized with Nembutal and perfused transcardially with 2.5% paraformaldehyde. Brains were removed, postfixed in 1% paraformaldehyde and cryoprotected with 15% sucrose solution in PBS. Free-floating sections (16 μm thick) were cut coronally or sagitaly with a sliding microtome (Leica SM 2000r) through the entire brain and collected serially in PBS.
(xli) Immunohistochemistry. To detect BrdU-incorporated cells, sections were denatured in 2M HCl in PBS at 37° C. for 30 min and then neutralized with 0.1M borate buffer (pH 8.5) for 10 min at room temperature. To detect specific cell types, sections were pre-incubated in PBS solution containing 20% serum and 0.5% Triton-X-100 for 1 h, and then incubated overnight at room temperature with primary antibodies. The following primary antibodies were used: goat anti-doublecortin (DCX) C-18 (1:200, Santa Cruz Biotechnology, Santa Cruz, Calif.), mouse anti-NeuN (1:300, Chemicon, Temecula, Calif.), mouse anti-GFAP (1:100, Pharmingen, San Jose, Calif.), rabbit anti-phospho-histone (1:200, Upstate Biotechnology, Charlottesville, Va.), rat anti-BrdU (1:200, Harlan, Indianapolis, Ind.), rat anti-CD11b (1:50, Pharmingen) and chicken anti-BDNF (1:50, Promega, Madison, Wis.). […]
(xlii) Microscopy. Stained sections were examined and photographed by a confocal microscope (Axiovert 100M; Zeiss, Oberkochen, Germany), or by a fluorescence microscope (E600; Nikon, Tokyo, Japan), equipped with Plan Fluor objectives connected to CCD camera (DMX1200F, Nikon). Digital images were collected and analyzed using Image Pro+software. […]

[5] = tested on: EAE mice; experiment: Clinical manifestations of MOG 35-55-induced EAE; format: in vivo; conditions: 5-8 daily s.c. injections 2 mg/mouse; prevention, suppression or delayed suppression
[6] = EAE+GA mice, one month after completion of GA treatment
[7] = GA vaccinated vs untreated Tg mice

glatiramer acetate [GA]
migration of neuronal progenitors outside the RMS ([1]; EAE mice treated with GA): migration into a region corresponding to the lateral cortical stream (LCS)
neuronal proliferation in the hippocampus (BrdU incorporation, DCX expression) ([1]; EAE+GA mice): increased proliferation
BDNF expression by migrating DCX+ cells ([1]; EAE+GA mice, nucleus accumbens and hippocampus): manifested extensive expression of BDNF
BrdU+/NeuN+ cells as share of all NeuN+ cells in the cortex [1, 6]: 1.3%
BrdU+/NeuN+ double-labeled cells in the cortex [1, 6]: 128±46 /mm^3
progenitors migrating to lesions ([1]; EAE+GA vs EAE mice): much higher
neuronal proliferation in the SVZ ([1]; EAE+GA vs untreated EAE mice and controls): augmented neuronal proliferation in the SVZ
BrdU or DCX expression in SVZ and DG ([1]; GA injection to naive mice (without EAE)): did not result in significant elevation
BrdU expression in the RMS, increase over EAE mice ([1]; GA on days 20-25 (suppression)): 2.2 fold
BrdU expression in the RMS, increase over control ([1]; GA on days 20-25 (suppression)): 7.8 fold
DCX expression in the RMS, increase over EAE mice ([1]; GA on days 20-25 (suppression)): 1.6 fold
DCX expression in the RMS, increase over control ([1]; GA on days 20-25 (suppression)): 2.6 fold
mobilization of progenitors into the RMS ([1]; injection of GA alone (no EAE)): enhanced mobilization of progenitors into the RMS, but to a lower extent
increase of new neurons in the cortex over EAE mice ([1]; one month after completion of GA treatment): 2.6 fold
DCX expression in the SVZ, elevation over EAE and control ([1]; prevention treatment): 4 fold
MWM performance (spatial learning/memory) [2]: superior to that of the untreated Tg mice
number of Aβ plaques ([3]; GA (TV-5010) vaccinated vs untreated Tg mice, 6 weeks later): significantly fewer plaques
BrdU+ cells in the dentate gyrus [3, 7]: significantly more BrdU^+ cells
CD11b+ microglia [3, 7]: significantly fewer CD11b^+ microglia
area occupied by the plaques [3, 7]: significantly smaller
staining for NeuN [3, 7]: significantly more intense staining for NeuN
MHC-II expression by microglia ([3]; GA-vaccinated Tg mice): most of the microglia adjacent to residual Aβ^+ plaques expressed MHC-II
DCX+ cells in the DG ([3]; relative to non-Tg littermates): slightly but significantly more
MAC-1 expression (microglial activation) ([4]; EAE+GA vs EAE mice): significantly reduced
neuronal damage in brain ([4]; EAE+GA vs EAE mice, prevention or suppression treatment): considerably less damage
neuronal malformations or perivascular infiltrations ([4]; mouse, in vivo): did not find neuronal malformations or perivascular infiltrations
clinical manifestations of EAE [5]: ameliorated the clinical manifestations of EAE regardless of the stage in which it was administered

From patent US20090191173A1, “Induction Of Neurogenesis And Stem Cell Therapy In Combination With Copolymer 1” (priority 2004, published 2009)
